Key:
Test in all cases: KINOMEscan binding assay
NEK4 = molecular target: T1, NEK4 (Homo sapiens, UniProt P51957); details: 1 µM i-CDK9; read-out: % Retention on Solid Support
T1 construct: purchased DiscoveRx KINOMEscan
In short: (§1)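 Active site-directed competition binding measured kinase engagement within a panel of over 400 kinases. i-CDK9 was tested at two concentrations, 1 and 10 µM.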

FGR = molecular target: T2, FGR (Homo sapiens, UniProt P09769); details: read-out: % Retention on Solid Support
T2 construct: purchased DiscoveRx KINOMEscan
In short: as §1

PIP5K2C = molecular target: T3, PIP5K2C (Homo sapiens, UniProt Q8TBX8); details: 1 µM i-CDK9; read-out: % Retention on Solid Support
T3 construct: purchased DiscoveRx KINOMEscan
In short: as §1

DLK = molecular target: T4, DLK (Homo sapiens, UniProt Q12852)
T4 construct: purchased DiscoveRx KINOMEscan
In short: as §1

ERBB2 = molecular target: T5, ERBB2 (Homo sapiens, UniProt P04626); details: read-out: % Retention on Solid Support
T5 construct: purchased DiscoveRx KINOMEscan
In short: as §1

MKK7 = molecular target: T6, MKK7 (Homo sapiens, UniProt O14733); details: 1 µM i-CDK9
T6 construct: purchased DiscoveRx KINOMEscan
In short: as §1

SIK2 = molecular target: T7, SIK2 (Homo sapiens, UniProt Q9H0K1); details: read-out: % Retention on Solid Support
T7 construct: purchased DiscoveRx KINOMEscan
In short: as §1

ADCK3 = molecular target: T8, ADCK3 (Homo sapiens, UniProt Q8NI60); details: read-out: % Retention on Solid Support
T8 construct: purchased DiscoveRx KINOMEscan
In short: as §1

ERN1 = molecular target: T9, ERN1 (Homo sapiens, UniProt O75460); details: read-out: % Retention on Solid Support
T9 construct: purchased DiscoveRx KINOMEscan
In short: as §1

MST1R = molecular target: T10, MST1R (Homo sapiens, UniProt Q04912); details: read-out: % Retention on Solid Support
T10 construct: purchased DiscoveRx KINOMEscan
In short: as §1

LZK = molecular target: T11, LZK (Homo sapiens, UniProt O43283)
T11 construct: purchased DiscoveRx KINOMEscan
In short: as §1

HPK1 = molecular target: T12, HPK1 (Homo sapiens, UniProt Q92918); details: read-out: % Retention on Solid Support
T12 construct: purchased DiscoveRx KINOMEscan
In short: as §1

CHEK2 = molecular target: T13, CHEK2 (Homo sapiens, UniProt O96017); details: read-out: % Retention on Solid Support
T13 construct: purchased DiscoveRx KINOMEscan
In short: as §1

BMX = molecular target: T14, BMX (Homo sapiens, UniProt P51813); details: read-out: % Retention on Solid Support
T14 construct: purchased DiscoveRx KINOMEscan
In short: as §1

ZAP70 = molecular target: T15, ZAP70 (Homo sapiens, UniProt P43403); details: read-out: % Retention on Solid Support
T15 construct: purchased DiscoveRx KINOMEscan
T15 sequence (P43403 1-619): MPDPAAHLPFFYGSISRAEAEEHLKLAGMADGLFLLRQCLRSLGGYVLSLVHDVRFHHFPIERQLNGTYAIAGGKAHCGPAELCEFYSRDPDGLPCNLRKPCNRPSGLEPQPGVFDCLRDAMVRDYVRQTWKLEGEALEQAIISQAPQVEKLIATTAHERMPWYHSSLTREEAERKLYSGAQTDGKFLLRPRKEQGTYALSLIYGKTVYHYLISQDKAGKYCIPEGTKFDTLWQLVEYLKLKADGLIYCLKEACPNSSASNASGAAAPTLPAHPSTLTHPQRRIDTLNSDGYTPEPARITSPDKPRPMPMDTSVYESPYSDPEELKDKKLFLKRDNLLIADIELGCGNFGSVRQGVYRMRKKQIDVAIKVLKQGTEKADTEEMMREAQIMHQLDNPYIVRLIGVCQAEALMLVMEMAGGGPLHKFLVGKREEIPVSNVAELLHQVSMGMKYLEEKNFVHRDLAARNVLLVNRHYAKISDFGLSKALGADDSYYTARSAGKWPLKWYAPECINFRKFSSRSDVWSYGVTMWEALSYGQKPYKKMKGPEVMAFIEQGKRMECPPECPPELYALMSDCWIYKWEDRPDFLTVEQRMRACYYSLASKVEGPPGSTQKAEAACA
In short: as §1

MEK5 = molecular target: T16, MEK5 (Homo sapiens, UniProt Q13163); details: 1 µM i-CDK9; read-out: % Retention on Solid Support
T16 construct: purchased DiscoveRx KINOMEscan
In short: as §1

CAMK2G = molecular target: T17, CAMK2G (Homo sapiens, UniProt Q13555); details: read-out: % Retention on Solid Support
T17 construct: purchased DiscoveRx KINOMEscan
In short: as §1

LATS2 = molecular target: T18, LATS2 (Homo sapiens, UniProt Q9NRM7)
T18 construct: purchased DiscoveRx KINOMEscan
In short: as §1

PIK3C2B = molecular target: T19, PIK3C2B (Homo sapiens, UniProt O00750); details: read-out: % Retention on Solid Support
T19 construct: purchased DiscoveRx KINOMEscan
In short: as §1

CDKL5 = molecular target: T20, CDKL5 (Homo sapiens, UniProt O76039); details: read-out: % Retention on Solid Support
T20 construct: purchased DiscoveRx KINOMEscan
In short: as §1

ERK4 = molecular target: T21, ERK4 (Homo sapiens, UniProt P31152); details: read-out: % Retention on Solid Support
T21 construct: purchased DiscoveRx KINOMEscan
In short: as §1

ERK1 = molecular target: T22, ERK1 (Homo sapiens, UniProt P27361); details: read-out: % Retention on Solid Support
T22 construct: purchased DiscoveRx KINOMEscan
In short: as §1

[1] = molecular target: T23, ABL1(Q252H)-nonphosphorylated (Homo sapiens, UniProt P00519, Q252H); details: read-out: % Retention on Solid Support
T23 construct: purchased DiscoveRx KINOMEscan
In short: as §1

MYLK = molecular target: T24, MYLK (Homo sapiens, UniProt Q15746); details: read-out: % Retention on Solid Support
T24 construct: purchased DiscoveRx KINOMEscan
In short: as §1

T17 sequence (Q13555 whole entry): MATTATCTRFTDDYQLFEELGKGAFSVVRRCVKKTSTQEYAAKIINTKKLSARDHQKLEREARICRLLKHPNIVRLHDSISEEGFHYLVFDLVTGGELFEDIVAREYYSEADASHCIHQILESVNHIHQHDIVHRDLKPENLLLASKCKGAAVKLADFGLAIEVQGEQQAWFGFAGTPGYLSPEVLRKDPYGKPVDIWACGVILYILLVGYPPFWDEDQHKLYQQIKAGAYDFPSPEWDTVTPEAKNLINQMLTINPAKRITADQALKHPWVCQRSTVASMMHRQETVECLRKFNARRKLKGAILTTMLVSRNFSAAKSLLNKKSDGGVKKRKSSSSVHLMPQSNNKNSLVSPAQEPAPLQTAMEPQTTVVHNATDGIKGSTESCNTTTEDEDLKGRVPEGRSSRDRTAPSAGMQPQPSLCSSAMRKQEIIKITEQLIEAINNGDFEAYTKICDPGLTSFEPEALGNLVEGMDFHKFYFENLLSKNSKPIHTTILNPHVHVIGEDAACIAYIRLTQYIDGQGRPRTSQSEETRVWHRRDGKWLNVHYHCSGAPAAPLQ
T21 sequence (P31152 whole entry): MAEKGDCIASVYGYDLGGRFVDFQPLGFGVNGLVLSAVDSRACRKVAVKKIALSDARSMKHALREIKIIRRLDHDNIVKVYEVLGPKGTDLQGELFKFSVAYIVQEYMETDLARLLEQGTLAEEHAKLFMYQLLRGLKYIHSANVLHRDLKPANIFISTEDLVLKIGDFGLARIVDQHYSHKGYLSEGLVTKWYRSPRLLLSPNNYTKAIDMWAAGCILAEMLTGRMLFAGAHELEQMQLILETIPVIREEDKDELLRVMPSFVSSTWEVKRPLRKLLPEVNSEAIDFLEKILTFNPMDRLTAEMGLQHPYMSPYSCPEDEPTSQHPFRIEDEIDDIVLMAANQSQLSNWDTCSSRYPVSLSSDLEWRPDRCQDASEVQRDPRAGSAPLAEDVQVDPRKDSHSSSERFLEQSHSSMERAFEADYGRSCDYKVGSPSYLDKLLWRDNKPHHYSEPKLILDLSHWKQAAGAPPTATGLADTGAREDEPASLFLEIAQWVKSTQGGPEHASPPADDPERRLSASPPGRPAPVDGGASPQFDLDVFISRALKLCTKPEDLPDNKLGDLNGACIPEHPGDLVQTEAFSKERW
T4 sequence (Q12852 whole entry): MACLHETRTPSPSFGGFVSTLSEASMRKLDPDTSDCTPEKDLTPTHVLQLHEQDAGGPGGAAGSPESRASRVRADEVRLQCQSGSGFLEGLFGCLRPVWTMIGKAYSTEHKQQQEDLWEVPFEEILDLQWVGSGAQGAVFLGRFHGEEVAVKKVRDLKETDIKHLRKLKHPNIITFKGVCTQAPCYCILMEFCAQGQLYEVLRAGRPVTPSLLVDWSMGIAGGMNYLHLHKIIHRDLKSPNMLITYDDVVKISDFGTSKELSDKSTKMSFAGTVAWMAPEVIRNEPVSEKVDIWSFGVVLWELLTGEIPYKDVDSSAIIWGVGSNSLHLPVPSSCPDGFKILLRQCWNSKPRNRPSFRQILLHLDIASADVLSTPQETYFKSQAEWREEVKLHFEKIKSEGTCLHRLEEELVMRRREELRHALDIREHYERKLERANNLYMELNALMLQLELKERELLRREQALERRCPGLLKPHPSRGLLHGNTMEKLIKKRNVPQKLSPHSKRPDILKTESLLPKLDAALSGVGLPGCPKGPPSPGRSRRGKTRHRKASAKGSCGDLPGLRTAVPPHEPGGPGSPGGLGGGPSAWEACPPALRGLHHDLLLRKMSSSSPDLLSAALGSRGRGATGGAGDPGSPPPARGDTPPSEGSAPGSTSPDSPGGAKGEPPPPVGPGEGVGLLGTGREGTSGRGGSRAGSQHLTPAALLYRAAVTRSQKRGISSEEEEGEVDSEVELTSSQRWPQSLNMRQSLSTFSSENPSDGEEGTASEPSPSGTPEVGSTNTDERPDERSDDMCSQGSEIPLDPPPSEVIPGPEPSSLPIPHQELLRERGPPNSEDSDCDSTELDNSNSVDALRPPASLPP
T9 sequence (O75460 19-977): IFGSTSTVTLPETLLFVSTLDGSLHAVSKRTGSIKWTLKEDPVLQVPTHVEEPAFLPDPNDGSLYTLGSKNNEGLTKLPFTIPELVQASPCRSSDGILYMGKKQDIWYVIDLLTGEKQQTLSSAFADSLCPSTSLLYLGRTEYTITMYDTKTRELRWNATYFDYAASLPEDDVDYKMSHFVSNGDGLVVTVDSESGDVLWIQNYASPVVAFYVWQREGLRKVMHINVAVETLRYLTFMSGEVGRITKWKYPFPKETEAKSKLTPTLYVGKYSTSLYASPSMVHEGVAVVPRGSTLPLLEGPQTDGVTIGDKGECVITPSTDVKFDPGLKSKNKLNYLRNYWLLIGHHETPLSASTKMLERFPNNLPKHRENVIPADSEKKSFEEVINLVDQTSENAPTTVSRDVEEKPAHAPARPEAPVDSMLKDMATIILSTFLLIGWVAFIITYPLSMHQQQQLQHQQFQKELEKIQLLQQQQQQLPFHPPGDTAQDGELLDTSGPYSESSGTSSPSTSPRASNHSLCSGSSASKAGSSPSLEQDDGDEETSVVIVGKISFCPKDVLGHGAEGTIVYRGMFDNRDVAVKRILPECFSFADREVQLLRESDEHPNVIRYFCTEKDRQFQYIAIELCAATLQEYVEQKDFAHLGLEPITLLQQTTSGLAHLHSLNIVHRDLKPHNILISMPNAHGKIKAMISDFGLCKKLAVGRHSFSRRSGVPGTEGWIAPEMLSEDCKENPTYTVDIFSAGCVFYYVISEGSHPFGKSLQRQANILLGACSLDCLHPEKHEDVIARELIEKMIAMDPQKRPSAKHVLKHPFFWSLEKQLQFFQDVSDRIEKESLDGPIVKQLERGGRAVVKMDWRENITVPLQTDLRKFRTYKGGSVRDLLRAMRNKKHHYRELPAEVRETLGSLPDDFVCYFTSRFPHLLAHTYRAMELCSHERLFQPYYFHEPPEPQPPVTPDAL
T20 sequence (O76039 whole entry): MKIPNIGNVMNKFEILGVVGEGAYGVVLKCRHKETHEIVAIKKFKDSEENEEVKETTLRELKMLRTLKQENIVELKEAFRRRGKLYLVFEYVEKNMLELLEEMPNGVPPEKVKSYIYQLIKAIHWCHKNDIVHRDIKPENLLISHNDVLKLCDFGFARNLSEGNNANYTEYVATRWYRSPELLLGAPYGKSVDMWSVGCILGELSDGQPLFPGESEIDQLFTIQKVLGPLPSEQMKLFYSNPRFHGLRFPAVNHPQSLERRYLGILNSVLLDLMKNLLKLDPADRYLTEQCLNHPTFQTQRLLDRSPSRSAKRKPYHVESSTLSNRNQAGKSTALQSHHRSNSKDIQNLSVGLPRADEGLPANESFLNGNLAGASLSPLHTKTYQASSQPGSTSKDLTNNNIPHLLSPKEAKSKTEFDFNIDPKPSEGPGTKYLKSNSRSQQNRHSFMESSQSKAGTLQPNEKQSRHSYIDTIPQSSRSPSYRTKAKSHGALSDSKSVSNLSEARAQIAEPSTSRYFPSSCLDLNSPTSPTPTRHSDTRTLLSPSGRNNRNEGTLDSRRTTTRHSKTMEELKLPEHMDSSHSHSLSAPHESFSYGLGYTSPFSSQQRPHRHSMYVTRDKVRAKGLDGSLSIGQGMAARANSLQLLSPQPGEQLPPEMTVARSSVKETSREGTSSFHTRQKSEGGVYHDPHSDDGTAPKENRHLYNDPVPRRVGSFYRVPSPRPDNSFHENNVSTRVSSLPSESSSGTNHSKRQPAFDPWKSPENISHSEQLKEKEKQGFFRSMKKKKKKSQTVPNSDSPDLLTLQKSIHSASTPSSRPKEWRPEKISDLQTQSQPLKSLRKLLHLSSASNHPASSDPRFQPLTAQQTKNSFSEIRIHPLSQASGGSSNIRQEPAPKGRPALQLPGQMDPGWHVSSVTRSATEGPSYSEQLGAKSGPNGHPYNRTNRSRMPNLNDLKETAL
T11 sequence (O43283 whole entry): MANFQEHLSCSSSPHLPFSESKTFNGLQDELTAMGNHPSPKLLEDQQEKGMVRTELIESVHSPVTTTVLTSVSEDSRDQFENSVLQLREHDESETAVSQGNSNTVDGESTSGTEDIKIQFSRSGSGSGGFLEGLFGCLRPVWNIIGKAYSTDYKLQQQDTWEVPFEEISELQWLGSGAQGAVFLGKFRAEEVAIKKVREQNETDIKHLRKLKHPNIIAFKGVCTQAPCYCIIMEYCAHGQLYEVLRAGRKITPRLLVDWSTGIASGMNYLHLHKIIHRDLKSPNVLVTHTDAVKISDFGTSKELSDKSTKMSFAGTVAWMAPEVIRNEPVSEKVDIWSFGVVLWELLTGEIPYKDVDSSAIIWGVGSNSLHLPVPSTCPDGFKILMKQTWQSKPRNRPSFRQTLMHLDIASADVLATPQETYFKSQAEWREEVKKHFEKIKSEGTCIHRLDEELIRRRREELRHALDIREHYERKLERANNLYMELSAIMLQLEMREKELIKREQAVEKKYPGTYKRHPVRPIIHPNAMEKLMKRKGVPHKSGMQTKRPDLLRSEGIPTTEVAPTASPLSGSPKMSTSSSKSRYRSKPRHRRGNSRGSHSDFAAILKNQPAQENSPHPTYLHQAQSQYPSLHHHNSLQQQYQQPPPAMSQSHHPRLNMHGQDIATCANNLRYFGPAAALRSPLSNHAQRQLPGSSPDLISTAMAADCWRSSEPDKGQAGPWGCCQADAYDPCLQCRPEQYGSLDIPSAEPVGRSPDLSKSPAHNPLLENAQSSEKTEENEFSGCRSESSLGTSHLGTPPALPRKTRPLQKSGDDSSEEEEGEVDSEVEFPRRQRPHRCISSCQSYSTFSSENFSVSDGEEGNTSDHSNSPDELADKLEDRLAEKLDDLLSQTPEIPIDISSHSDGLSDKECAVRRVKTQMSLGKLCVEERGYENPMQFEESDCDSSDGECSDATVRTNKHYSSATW

Question: For N[C@H]1CC[C@H](Nc2cc(-c3cccc(NCc4cccc(F)c4)n3)c(Cl)cn2)CC1 [i-CDK9, N2′-(trans-4-aminocyclohexyl)-5′-chloro-N6-(3-fluorobenzyl)-2,4′-bipyridine-2′,6-diamine], which remaining binding at 1 µM (NEK4) is on record?
Answer: The remaining binding at 1 µM was 100%.

Question: What about the remaining binding at 1 µM (FGR; 1 µM i-CDK9) of the same compound?
Answer: The remaining binding at 1 µM was 100%.

Question: What about the remaining binding at 10 µM (FGR; 10 µM i-CDK9) of the same compound?
Answer: The remaining binding at 10 µM was 98%.

Question: What about the remaining binding at 1 µM (PIP5K2C) of the same compound?
Answer: The remaining binding at 1 µM was 100%.

Question: And the “% Retention on Solid Support” value (DLK; 1 µM i-CDK9)?
Answer: The value was 100%.

Question: What about the “% Retention on Solid Support” value (DLK; 10 µM i-CDK9) of the same compound?
Answer: The value was 71%.

Question: What about the remaining binding at 1 µM (ERBB2; 1 µM i-CDK9) of the same compound?
Answer: The remaining binding at 1 µM was 88%.

Question: What about the remaining binding at 10 µM (ERBB2; 10 µM i-CDK9) of the same compound?
Answer: Its remaining binding at 10 µM is 100%.

Question: And the “% Retention on Solid Support” value (MKK7)?
Answer: The value was 100%.

Question: What about the remaining binding at 1 µM (SIK2; 1 µM i-CDK9) of the same compound?
Answer: Its remaining binding at 1 µM is 90%.

Question: And the remaining binding at 10 µM (SIK2; 10 µM i-CDK9)?
Answer: Its remaining binding at 10 µM is 64%.

Question: What about the remaining binding at 1 µM (ADCK3; 1 µM i-CDK9) of the same compound?
Answer: The remaining binding at 1 µM was 100%.

Question: What about the remaining binding at 10 µM (ADCK3; 10 µM i-CDK9) of the same compound?
Answer: Its remaining binding at 10 µM is 86%.

Question: What about the remaining binding at 1 µM (ERN1; 1 µM i-CDK9) of the same compound?
Answer: Its remaining binding at 1 µM is 100%.

Question: What about the remaining binding at 10 µM (ERN1; 10 µM i-CDK9) of the same compound?
Answer: Its remaining binding at 10 µM is 62%.

Question: What about the remaining binding at 1 µM (MST1R; 1 µM i-CDK9) of the same compound?
Answer: The remaining binding at 1 µM was 100%.

Question: And the remaining binding at 10 µM (MST1R; 10 µM i-CDK9)?
Answer: The remaining binding at 10 µM was 100%.

Question: What about the “% Retention on Solid Support” value (LZK; 1 µM i-CDK9) of the same compound?
Answer: Its value is 100%.

Question: What about the “% Retention on Solid Support” value (LZK; 10 µM i-CDK9) of the same compound?
Answer: The value was 100%.

Question: What about the remaining binding at 1 µM (HPK1; 1 µM i-CDK9) of the same compound?
Answer: Its remaining binding at 1 µM is 86%.

Question: What about the remaining binding at 10 µM (HPK1; 10 µM i-CDK9) of the same compound?
Answer: Its remaining binding at 10 µM is 100%.

Question: What about the remaining binding at 1 µM (CHEK2; 1 µM i-CDK9) of the same compound?
Answer: Its remaining binding at 1 µM is 98%.

Question: What about the remaining binding at 10 µM (CHEK2; 10 µM i-CDK9) of the same compound?
Answer: Its remaining binding at 10 µM is 100%.

Question: And the remaining binding at 1 µM (BMX; 1 µM i-CDK9)?
Answer: Its remaining binding at 1 µM is 96%.

Question: What about the remaining binding at 10 µM (BMX; 10 µM i-CDK9) of the same compound?
Answer: Its remaining binding at 10 µM is 81%.

Question: And the remaining binding at 1 µM (ZAP70; 1 µM i-CDK9)?
Answer: The remaining binding at 1 µM was 1.6%.

Question: What about the remaining binding at 10 µM (ZAP70; 10 µM i-CDK9) of the same compound?
Answer: Its remaining binding at 10 µM is 96%.

Question: What about the remaining binding at 1 µM (MEK5) of the same compound?
Answer: The remaining binding at 1 µM was 100%.

Question: And the remaining binding at 1 µM (CAMK2G; 1 µM i-CDK9)?
Answer: The remaining binding at 1 µM was 100%.

Question: What about the remaining binding at 10 µM (CAMK2G; 10 µM i-CDK9) of the same compound?
Answer: The remaining binding at 10 µM was 100%.

Question: What about the “% Retention on Solid Support” value (LATS2; 1 µM i-CDK9) of the same compound?
Answer: The value was 100%.

Question: And the “% Retention on Solid Support” value (LATS2; 10 µM i-CDK9)?
Answer: The value was 100%.

Question: What about the remaining binding at 1 µM (PIK3C2B; 1 µM i-CDK9) of the same compound?
Answer: Its remaining binding at 1 µM is 100%.

Question: What about the remaining binding at 10 µM (PIK3C2B; 10 µM i-CDK9) of the same compound?
Answer: The remaining binding at 10 µM was 95%.

Question: And the remaining binding at 1 µM (CDKL5; 1 µM i-CDK9)?
Answer: The remaining binding at 1 µM was 52%.

Question: What about the remaining binding at 10 µM (CDKL5; 10 µM i-CDK9) of the same compound?
Answer: Its remaining binding at 10 µM is 3.8%.

Question: And the remaining binding at 1 µM (ERK4; 1 µM i-CDK9)?
Answer: Its remaining binding at 1 µM is 100%.

Question: What about the remaining binding at 10 µM (ERK4; 10 µM i-CDK9) of the same compound?
Answer: Its remaining binding at 10 µM is 100%.

Question: What about the remaining binding at 1 µM (ERK1; 1 µM i-CDK9) of the same compound?
Answer: The remaining binding at 1 µM was 100%.

Question: And the remaining binding at 10 µM (ERK1; 10 µM i-CDK9)?
Answer: Its remaining binding at 10 µM is 93%.

Question: What about the remaining binding at 1 µM ([1]; 1 µM i-CDK9) of the same compound?
Answer: Its remaining binding at 1 µM is 55%.

Question: What about the remaining binding at 10 µM ([1]; 10 µM i-CDK9) of the same compound?
Answer: The remaining binding at 10 µM was 91%.

Question: What about the remaining binding at 1 µM (MYLK; 1 µM i-CDK9) of the same compound?
Answer: Its remaining binding at 1 µM is 100%.

Question: And the remaining binding at 10 µM (MYLK; 10 µM i-CDK9)?
Answer: The remaining binding at 10 µM was 100%.

Reference: article PMC4490784, “Compensatory induction of MYC expression by sustained CDK9 inhibition via a BRD4-dependent mechanism” (eLife, 2015)
